# Measured values reported in PMC9340770 (Journal of Medicinal Chemistry, 2022).
# Read-outs that look alike come from different tables or passages of the source.
# Experiments:
# Rat PK (IV and PO) = assay type: in vivo, Sprague–Dawley rats
# Excerpt: Table 9 PK Parameters for MRTX0902 (32) across Species | column: rat
# [1] = PK across species (ranges); assay type: in vivo, CD-1 mice, Sprague–Dawley rats, and beagle dogs; conditions: range across mice, rats, dogs
# [2] = pKa determination (Sirius T3); assay type: physicochemical; conditions: for pKa: water/methanol co-solvent mixture
# Experimental: Sirius T3Dt (Sirius Analytical Instruments Ltd) fitted with combination Ag/AgCl pH electrode was used for the determination of dissociation constants. The pKa and psKa values were calculated by Sirius T3Dt software (Sirius Analytical Instruments Ltd, Version 1.0.12.120). There are two methods available on the Sirius T3 for pKa measurement: potentiometric titration and spectroscopic (UV) titration.
# UV metric method: Pipetted 5 µL of sample stock solution (10 mM in DMSO) and 25 µL fast UV buffer into a sample vial, and 1.5 mL of 80%v/v MeOH was added into the sample vial automatically. Pre - acidified the sample solution with 0.5 M HCl by the instrument automatically, and then titrated three times from low to high pH. Refined the data to get aqu eous pKa value. pH metric method: About 1 mg of sample was weighed into a sample vial. 1.50 mL of 80%v/v MeOH was added into the vial automatically. The sample was solution pre -acidified with 0.5 M HCl by the instrument automatically, and then titrated three times from low to high pH. Refined the data to get aqueous pKa value.
# Sirius T3 software always fits Yasuda -Shedlovsky data linearly, according to the equation.
# • Yi is calculated as psKa + log [H 2O]
# • psKa represents apparent pKa values of compounds measured in water/co -solvent mixtures • [H2O] represents the concentration of H2O in mixtures solution […]
# • ε i represents dielectric constant of water/co-solvent mixture
# Table S3. pKa of MRTX0902
# Cmpd pKa pKa (pH Final pKa
# CNS mouse PK study = assay type: in vivo, female CD-1 mice; conditions: female, CD-1, mouse, CSF / free plasma, read-out: CSF:Cp,u (Kp,uu)
# Excerpt: Table 10 CNS Mouse PK Profile of MRTX0902 (32) ^a | column: mean free plasma concn (Cp,u, nM); mean brain concn (ng/g); mean CSF concn (nM); CSF:Cp,u (Kp,uu)
# ADORA2A = target: T1, ADORA2A (Homo sapiens, UniProt P29274); experiment: Safetyscan Calcium Flux; assay type: cell-based
# T1 construct: purchased DiscoverX (Eurofins) Safetyscan Panel
# AVPR1A = target: T2, AVPR1A (Homo sapiens, UniProt P37288); experiment: Safetyscan Calcium Flux; assay type: cell-based
# T2 construct: purchased DiscoverX (Eurofins) Safetyscan Panel
# ADRB1 = target: T3, ADRB1 (Homo sapiens, UniProt P08588); experiment: Safetyscan cAMP; assay type: cell-based
# T3 construct: purchased DiscoverX (Eurofins) Safetyscan Panel
# ADRB2 = target: T4, ADRB2 (Homo sapiens, UniProt P07550); experiment: Safetyscan cAMP; assay type: cell-based
# T4 construct: purchased DiscoverX (Eurofins) Safetyscan Panel
# HRH2 = target: T5, HRH2 (Homo sapiens, UniProt P25021); experiment: Safetyscan cAMP; assay type: cell-based
# T5 construct: purchased DiscoverX (Eurofins) Safetyscan Panel
# CAV1.2 = target: T6, CAV1.2 (Homo sapiens, UniProt Q13936); experiment: Safetyscan Ion Channel; assay type: cell-based; conditions: blocker mode, read-out: RC50 (IC50) CAV1.2 Blocker
# T6 construct: purchased DiscoverX (Eurofins)
# hERG = target: T7, hERG (Homo sapiens, UniProt Q12809); experiment: Safetyscan Ion Channel; assay type: cell-based; conditions: blocker mode, read-out: RC50 (IC50) hERG Blocker
# T7 construct: purchased DiscoverX (Eurofins)
# INSR = target: T8, INSR (Homo sapiens, UniProt P06213); experiment: Safetyscan Kinases Binding; conditions: read-out: RC50 (IC50) INSR Inhibitor
# T8 construct: purchased DiscoverX (Eurofins)
# LCK = target: T9, LCK (Homo sapiens, UniProt P06239); experiment: Safetyscan Kinases Binding; conditions: read-out: RC50 (IC50) LCK Inhibitor
# T9 construct: purchased DiscoverX (Eurofins)
# ROCK1 = target: T10, ROCK1 (Homo sapiens, UniProt Q13464); experiment: Safetyscan Kinases Binding; conditions: read-out: RC50 (IC50) ROCK1 Inhibitor
# T10 construct: purchased DiscoverX (Eurofins)
# GR = target: T11, GR (Homo sapiens, UniProt P04150); experiment: Safetyscan NHR Protein Interaction; assay type: cell-based
# T11 construct: purchased DiscoverX (Eurofins)
# COX1 = target: T12, COX1 (Homo sapiens, UniProt P23219); experiment: Safetyscan Enzymatic; assay type: biochemical; conditions: read-out: RC50 (IC50) COX1 Inhibitor
# T12 construct: purchased DiscoverX (Eurofins)
# COX2 = target: T13, COX2 (Homo sapiens, UniProt P35354); experiment: Safetyscan Enzymatic; assay type: biochemical; conditions: read-out: RC50 (IC50) COX2 Inhibitor
# T13 construct: purchased DiscoverX (Eurofins)
# PDE3A = target: T14, PDE3A (Homo sapiens, UniProt Q14432); experiment: Safetyscan Enzymatic; assay type: biochemical; conditions: read-out: RC50 (IC50) PDE3A Inhibitor
# T14 construct: purchased DiscoverX (Eurofins)
# PDE4D2 = target: T15, PDE4D2 (Homo sapiens, UniProt Q08499); experiment: Safetyscan Enzymatic; assay type: biochemical; conditions: read-out: RC50 (IC50) PDE4D2 Inhibitor
# T15 construct: purchased DiscoverX (Eurofins)
# in vivo = conditions: CD-1, mouse, po, 30 mg/kg
# [3] = test system: safety panel comprised of 78 protein targets; experiment: DiscoverX (Eurofins) Safetyscan panel, overall; conditions: safety panel of 78 protein targets
# [4] = test system: MIA PaCa-2 tumor mouse xenograft; experiment: Antitumor efficacy study in MIA PaCa-2 mouse xenograft; conditions: for tumor growth inhibition (TGI): single agent, 25 days
# [5] = CD-1, Sprague-Dawley, beagle, mouse, rat, dog, in vivo, IV administration
# T11 sequence (P04150 whole entry): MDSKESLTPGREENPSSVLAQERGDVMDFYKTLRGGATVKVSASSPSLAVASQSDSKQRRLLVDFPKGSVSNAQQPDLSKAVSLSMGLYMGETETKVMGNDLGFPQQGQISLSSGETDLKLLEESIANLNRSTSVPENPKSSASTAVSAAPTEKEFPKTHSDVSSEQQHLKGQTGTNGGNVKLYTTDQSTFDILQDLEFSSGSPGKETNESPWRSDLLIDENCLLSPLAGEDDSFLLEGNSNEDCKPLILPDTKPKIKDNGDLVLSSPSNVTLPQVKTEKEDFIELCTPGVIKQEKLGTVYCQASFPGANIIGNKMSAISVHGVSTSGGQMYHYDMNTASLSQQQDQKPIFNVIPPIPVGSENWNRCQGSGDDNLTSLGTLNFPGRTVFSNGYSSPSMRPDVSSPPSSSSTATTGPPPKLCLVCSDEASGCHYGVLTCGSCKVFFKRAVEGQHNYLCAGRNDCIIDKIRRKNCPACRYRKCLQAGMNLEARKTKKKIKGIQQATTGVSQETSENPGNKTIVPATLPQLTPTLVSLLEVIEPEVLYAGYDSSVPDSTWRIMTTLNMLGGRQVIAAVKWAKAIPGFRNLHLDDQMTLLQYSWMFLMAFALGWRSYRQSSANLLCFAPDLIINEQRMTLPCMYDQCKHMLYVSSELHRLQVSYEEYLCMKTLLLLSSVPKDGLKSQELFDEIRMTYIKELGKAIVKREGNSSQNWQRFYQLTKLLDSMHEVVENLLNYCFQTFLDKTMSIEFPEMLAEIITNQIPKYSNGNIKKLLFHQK
# T4 sequence (P07550 whole entry): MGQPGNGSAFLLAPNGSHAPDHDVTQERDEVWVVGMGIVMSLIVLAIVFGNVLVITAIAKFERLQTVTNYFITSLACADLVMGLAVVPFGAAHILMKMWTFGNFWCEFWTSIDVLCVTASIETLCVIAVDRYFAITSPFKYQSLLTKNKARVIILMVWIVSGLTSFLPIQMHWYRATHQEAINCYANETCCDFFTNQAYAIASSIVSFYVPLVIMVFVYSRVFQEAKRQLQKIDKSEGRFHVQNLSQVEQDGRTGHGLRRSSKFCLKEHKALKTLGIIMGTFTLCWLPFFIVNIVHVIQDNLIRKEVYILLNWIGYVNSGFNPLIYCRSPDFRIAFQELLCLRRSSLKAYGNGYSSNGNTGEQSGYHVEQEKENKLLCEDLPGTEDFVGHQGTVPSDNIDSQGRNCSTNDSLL
# T1 sequence (P29274 whole entry): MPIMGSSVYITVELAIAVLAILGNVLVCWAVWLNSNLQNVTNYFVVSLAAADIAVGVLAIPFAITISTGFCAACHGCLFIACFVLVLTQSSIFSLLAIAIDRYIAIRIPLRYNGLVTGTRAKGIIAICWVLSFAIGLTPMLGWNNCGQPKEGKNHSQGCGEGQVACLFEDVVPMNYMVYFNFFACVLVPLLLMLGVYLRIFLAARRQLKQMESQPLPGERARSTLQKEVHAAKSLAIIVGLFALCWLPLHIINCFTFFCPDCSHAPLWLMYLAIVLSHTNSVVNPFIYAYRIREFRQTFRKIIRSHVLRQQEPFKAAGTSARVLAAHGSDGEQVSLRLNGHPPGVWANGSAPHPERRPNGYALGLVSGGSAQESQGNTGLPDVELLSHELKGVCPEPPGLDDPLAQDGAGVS
# T2 sequence (P37288 whole entry): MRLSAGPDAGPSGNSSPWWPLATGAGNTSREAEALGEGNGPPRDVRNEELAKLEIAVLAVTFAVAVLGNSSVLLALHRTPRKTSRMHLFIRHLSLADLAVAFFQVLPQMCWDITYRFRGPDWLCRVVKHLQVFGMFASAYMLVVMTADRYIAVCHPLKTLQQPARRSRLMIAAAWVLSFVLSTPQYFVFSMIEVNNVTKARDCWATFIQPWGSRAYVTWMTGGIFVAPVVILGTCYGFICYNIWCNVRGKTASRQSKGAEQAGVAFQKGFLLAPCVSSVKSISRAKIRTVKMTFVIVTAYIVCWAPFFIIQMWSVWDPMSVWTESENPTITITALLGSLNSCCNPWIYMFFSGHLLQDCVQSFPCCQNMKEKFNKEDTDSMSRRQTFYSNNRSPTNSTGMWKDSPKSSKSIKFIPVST
# T5 sequence (P25021 whole entry): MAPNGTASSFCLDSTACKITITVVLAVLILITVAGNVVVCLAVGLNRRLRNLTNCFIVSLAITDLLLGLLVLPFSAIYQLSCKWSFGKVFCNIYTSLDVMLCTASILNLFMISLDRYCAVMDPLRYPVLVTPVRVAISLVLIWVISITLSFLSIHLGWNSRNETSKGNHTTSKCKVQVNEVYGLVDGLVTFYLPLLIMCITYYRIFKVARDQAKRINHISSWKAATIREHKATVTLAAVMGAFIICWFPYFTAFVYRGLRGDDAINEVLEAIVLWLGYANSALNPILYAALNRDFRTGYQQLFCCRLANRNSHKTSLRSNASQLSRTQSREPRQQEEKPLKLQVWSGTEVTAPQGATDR
# T3 sequence (P08588 whole entry): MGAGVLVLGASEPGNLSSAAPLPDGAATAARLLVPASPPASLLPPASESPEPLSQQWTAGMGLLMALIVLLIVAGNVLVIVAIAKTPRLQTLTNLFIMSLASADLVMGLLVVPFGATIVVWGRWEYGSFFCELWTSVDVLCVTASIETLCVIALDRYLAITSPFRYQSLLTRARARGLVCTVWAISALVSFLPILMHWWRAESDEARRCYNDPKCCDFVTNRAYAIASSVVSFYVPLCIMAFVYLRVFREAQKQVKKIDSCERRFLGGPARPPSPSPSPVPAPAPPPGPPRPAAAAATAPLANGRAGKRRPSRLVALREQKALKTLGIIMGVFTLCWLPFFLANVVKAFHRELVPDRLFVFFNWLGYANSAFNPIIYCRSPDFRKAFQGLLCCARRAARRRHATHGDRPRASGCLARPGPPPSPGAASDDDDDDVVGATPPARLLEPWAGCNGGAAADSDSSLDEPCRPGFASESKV
# T8 sequence (P06213 28-1382): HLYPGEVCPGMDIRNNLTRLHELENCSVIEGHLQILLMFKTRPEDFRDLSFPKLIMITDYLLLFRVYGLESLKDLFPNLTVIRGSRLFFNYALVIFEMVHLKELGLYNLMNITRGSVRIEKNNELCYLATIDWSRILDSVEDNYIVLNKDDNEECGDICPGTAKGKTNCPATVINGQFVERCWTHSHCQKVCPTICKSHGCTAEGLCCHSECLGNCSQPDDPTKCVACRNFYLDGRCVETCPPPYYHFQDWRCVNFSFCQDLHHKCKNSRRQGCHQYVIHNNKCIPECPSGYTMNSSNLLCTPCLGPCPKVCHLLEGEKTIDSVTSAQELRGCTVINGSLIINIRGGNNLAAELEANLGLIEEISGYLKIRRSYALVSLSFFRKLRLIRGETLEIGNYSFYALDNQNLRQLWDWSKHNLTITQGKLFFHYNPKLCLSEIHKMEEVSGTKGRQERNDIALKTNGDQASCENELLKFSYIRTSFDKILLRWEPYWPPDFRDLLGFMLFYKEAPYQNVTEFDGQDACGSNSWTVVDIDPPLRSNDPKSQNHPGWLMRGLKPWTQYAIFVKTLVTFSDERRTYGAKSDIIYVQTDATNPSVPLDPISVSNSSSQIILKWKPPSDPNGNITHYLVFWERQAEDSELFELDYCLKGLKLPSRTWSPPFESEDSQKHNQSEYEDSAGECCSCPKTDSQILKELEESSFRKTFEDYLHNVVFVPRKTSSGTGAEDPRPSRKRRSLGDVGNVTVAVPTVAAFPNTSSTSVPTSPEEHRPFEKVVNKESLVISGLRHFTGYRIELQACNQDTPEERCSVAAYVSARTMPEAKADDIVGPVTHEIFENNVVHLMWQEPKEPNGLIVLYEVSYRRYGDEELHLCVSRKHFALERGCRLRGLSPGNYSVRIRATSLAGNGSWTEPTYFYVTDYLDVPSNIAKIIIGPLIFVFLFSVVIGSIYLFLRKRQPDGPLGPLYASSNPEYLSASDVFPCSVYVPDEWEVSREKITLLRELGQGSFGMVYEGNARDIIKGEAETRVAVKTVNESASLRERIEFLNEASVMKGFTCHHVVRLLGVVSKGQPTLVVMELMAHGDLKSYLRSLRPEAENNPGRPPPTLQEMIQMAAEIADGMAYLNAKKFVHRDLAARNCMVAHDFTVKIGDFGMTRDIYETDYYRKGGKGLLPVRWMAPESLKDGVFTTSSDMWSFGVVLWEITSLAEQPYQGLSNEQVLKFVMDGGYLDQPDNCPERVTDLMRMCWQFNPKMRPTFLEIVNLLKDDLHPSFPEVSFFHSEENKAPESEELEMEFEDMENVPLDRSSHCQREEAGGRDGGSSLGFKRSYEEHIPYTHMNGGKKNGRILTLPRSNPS
# T12 sequence (P23219 24-599): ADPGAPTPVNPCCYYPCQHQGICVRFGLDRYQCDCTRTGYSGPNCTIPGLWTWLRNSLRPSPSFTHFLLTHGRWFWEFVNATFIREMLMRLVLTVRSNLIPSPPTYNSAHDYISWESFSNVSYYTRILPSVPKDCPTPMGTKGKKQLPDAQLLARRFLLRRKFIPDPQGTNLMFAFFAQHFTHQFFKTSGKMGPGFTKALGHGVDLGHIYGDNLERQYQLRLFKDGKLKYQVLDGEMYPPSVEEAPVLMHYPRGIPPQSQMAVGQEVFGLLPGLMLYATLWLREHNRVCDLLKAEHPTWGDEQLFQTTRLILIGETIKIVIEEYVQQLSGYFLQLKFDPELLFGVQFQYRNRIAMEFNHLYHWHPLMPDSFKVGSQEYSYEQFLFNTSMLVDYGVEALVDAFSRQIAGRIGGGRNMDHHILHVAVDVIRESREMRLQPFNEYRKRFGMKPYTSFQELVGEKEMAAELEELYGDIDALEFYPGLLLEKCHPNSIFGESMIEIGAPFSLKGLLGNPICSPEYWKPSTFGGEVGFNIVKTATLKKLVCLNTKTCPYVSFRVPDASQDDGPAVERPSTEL
compound,measurement,setting,value
"Cc1c(C#N)cccc1[C@@H](C)Nc1nnc(C)c2cnc(N3CCOCC3)cc12 [Compound 32, (R)-2-Methyl-3-(1-((4-methyl-7-morpholinopyrido[3,4-d]pyridazin-1-yl)amino)ethyl)benzonitrile]",IV t1/2,Rat PK (IV and PO); IV 1 mg/kg,37.2 min
same,"Vd,ss",Rat PK (IV and PO); IV 1 mg/kg,0.28 L/kg
same,clearance,"Rat PK (IV and PO); Sprague-Dawley, in vivo, IV 1 mg/kg",14.6 mL/min/kg
same,bioavailability,"Rat PK (IV and PO); Sprague-Dawley, in vivo, IV/PO 1/10 mg/kg, PO suspension in 0.5% MC (4000 cps)/0.2% Tween80 in water",83%
same,clearance,[1]; [5],4.4 to 14.6 mL/min/kg
same,half-life,[1]; [5],37.2 to 78 min
same,Vd,"[1]; CD-1, Sprague-Dawley, beagle, mouse, rat, dog, in vivo, IV administration, read-out: volume of distribution",0.28 to 0.48 L/kg
same,bioavailability,[1]; PO suspension in 0.5% MC (4000 cps)/0.2% Tween80 in water,38–83 %F
same,ionized at pH 7.4,"[2]; pH 7.4, based on measured pKa",~17%
same,pKa,"[2]; UV metric method, read-out: pKa (UV metric)",6.78
same,pKa,"[2]; pH 7.4, pKa (final pKa result)",6.7
same,pKa,"[2]; pH metric method, read-out: pKa (pH metric)",6.62
same,Kp uu at 1 h,CNS mouse PK study; 1 h after PO 100 mg/kg single dose,1.56
same,Kp uu at 8 h,CNS mouse PK study; 8 h after PO 100 mg/kg single dose,1.03
same,EC50,"ADORA2A; agonist mode, read-out: RC50 (EC50) ADORA2A Agonist",> 10 µM
same,IC50,"ADORA2A; antagonist mode, read-out: RC50 (IC50) ADORA2A Antagonist",> 10 µM
same,EC50,"AVPR1A; agonist mode, read-out: RC50 (EC50) AVPR1A Agonist",> 10 µM
same,IC50,"AVPR1A; antagonist mode, read-out: RC50 (IC50) AVPR1A Antagonist",> 10 µM
same,EC50,"ADRB1; agonist mode, read-out: RC50 (EC50) ADRB1 Agonist",> 10 µM
same,IC50,"ADRB1; antagonist mode, read-out: RC50 (IC50) ADRB1 Antagonist",> 10 µM
same,EC50,"ADRB2; agonist mode, read-out: RC50 (EC50) ADRB2 Agonist",> 10 µM
same,IC50,"ADRB2; antagonist mode, read-out: RC50 (IC50) ADRB2 Antagonist",> 10 µM
same,EC50,"HRH2; agonist mode, read-out: RC50 (EC50) HRH2 Agonist",> 10 µM
same,IC50,"HRH2; antagonist mode, read-out: RC50 (IC50) HRH2 Antagonist",> 10 µM
same,IC50,CAV1.2,> 10 µM
same,IC50,hERG,> 10 µM
same,IC50,INSR,> 10 µM
same,IC50,LCK,> 10 µM
same,IC50,ROCK1,> 10 µM
same,EC50,"GR; agonist mode, read-out: RC50 (EC50) GR Agonist",> 10 µM
same,IC50,"GR; antagonist mode, read-out: RC50 (IC50) GR Antagonist",> 10 µM
same,IC50,COX1,> 10 µM
same,IC50,COX2,> 10 µM
same,IC50,PDE3A,> 10 µM
same,IC50,PDE4D2,> 10 µM
same,bioavailability,in vivo,69%
same,IC50,[3],> 10 µM
same,tumor regression,[4]; MRTX0902 25 mg/k bid in combination with MRTX849 10 mg/kg qd,−54%
same,tumor regression,[4]; MRTX0902 50 mg/kg bid in combination with MRTX849 10 mg/kg qd,−92%
same,tumor-free animals,"[4]; MRTX0902 50 mg/kg bid with MRTX849 10 mg/kg qd, n = 5 animals/group",two tumor-free animals
same,tumor growth inhibition (TGI),[4]; 25 mg/kg bid PO,41%
same,tumor growth inhibition (TGI),[4]; 50 mg/kg bid PO,53%
